# Experimental data: publication PMC6407204, “Oral administration of the cannabigerol derivative VCE-003.2 promotes subventricular zone neurogenesis and protects against mutant huntingtin-induced neurodegeneration” (Translational Neurodegeneration, 2019)
# Columns and labels:
# [1] = Microsomal metabolic stability
# Procedure: The final incubation volume was 25 μL. […] The reactions were stopped by the addition of 50 μL methanol containing internal standard at the appropriate time points. The incubation plates were centrifuged at 2500 rpm for 20 min at 4 °C to precipitate the protein. Following protein precipitation, the sample supernatants were analyzed using LC-MS/MS. From a plot of ln peak area ratio (compound peak area/internal standard peak area) against time, the gradient of the line was determined. Subsequently, half-life and intrinsic clearance was calculated using the equations below: Elimination rate constant (k) = (− gradient).
# CYP2B6 = target: T1, CYP2B6 (Homo sapiens, UniProt P20813); test: biochemical; type: in vitro ADME; settings: Substrate = Bupropion, human liver microsomes
# T1 construct: from tissue; host or cells: human liver microsomes
# Procedure: (§1) Supplementary file 40035_2019_148_MOESM2_ESM.pdf: Additional file 2: Cytochrome P450 Inhibition (IC50 Determination). CYP1A Inhibition. VCE-003.2 (0.1, 0.25, 1, 2.5, 10, 25 μM in DMSO; final DMSO concentration = 0.3%) was incubated with human liver microsomes (0.25 mg/mL) and NADPH (1 mM) in the presence of the probe substrate ethoxyresorufin (0.5 μM) for 5 min at 37 °C. The selective CYP1A inhibitor, alpha-naphthoflavone, was screened alongside the test compounds as a positive control. CYP2B6 Inhibition. VCE-003.2 (0.1, 0.25, 1, 2.5, 10, 25 μM in DMSO; final DMSO concentration = 0.3%) was incubated with human liver microsomes (0.1 mg/mL) and NADPH (1 mM) in the presence of the probe substrate bupropion (110 μM) for 5 min at 37 °C. The selective CYP2B6 inhibitor, ticlopidine, was screened alongside the test compounds as a positive control. CYP2C8 Inhibition. VCE-003.2 (0.1, 0.25, 1, 2.5, 10, 25 μM in DMSO; final DMSO concentration = 0.3%) was incubated with human liver microsomes (0.25 mg/mL) and NADPH (1 mM) in the presence of the probe substrate paclitaxel (7.5 μM) for 30 min at 37 °C. The selective CYP2C8 inhibitor, montelukast, was screened alongside the test compounds as a positive control. CYP2C9 Inhibition. VCE-003.2 (0.1, 0.25, 1, 2.5, 10, 25 μM in DMSO; final DMSO concentration = 0.3%) was incubated with human liver microsomes (1 mg/mL) and NADPH (1 mM) in the presence of the probe substrate tolbutamide (120 μM) for 60 min at 37 °C. The selective CYP2C9 inhibitor, sulphaphenazole, was screened alongside the test compounds as a positive control. CYP2C19 Inhibition. VCE-003.2 (0.1, 0.25, 1, 2.5, 10, 25 μM in DMSO; final DMSO concentration = 0.3%) was incubated with human liver microsomes (0.5 mg/mL) and NADPH (1 mM) in the presence of the probe substrate mephenytoin (25 μM) for 60 min at 37 °C. The selective CYP2C19 inhibitor, tranylcypromine, was screened alongside the test compounds as a positive control. CYP2D6 Inhibition. VCE-003.2 (0.1, 0.25, 1, 2.5, 10, 25 μM in DMSO; final DMSO concentration = 0.3%) was incubated with human liver microsomes (0.5 mg/mL) and NADPH (1 mM) in the presence of the probe substrate dextromethorphan (5 μM) for 5 min at 37 °C. […] CYP3A4 Inhibition. VCE-003.2 (0.1, 0.25, 1, 2.5, 10, 25 μM in DMSO; final DMSO concentration = 0.3%) was incubated with human liver microsomes (0.1 mg/mL) and NADPH (1 mM) in the presence of the probe substrate midazolam (2.5 μM) for 5 min at 37 °C. The selective CYP3A4 inhibitor, ketoconazole, was screened alongside the test compounds as a positive control. CYP3A4 Inhibition. VCE-003.2 (0.1, 0.25, 1, 2.5, 10, 25 μM in DMSO; final DMSO concentration = 0.3%) was incubated with human liver microsomes (0.5 mg/mL) and NADPH (1 mM) in the presence of the probe substrate testosterone (50 μM) for 5 min at 37 °C. The selective CYP3A4 inhibitor, ketoconazole, was screened alongside the test compounds as a positive control. For the CYP1A incubations, the reactions were terminated by methanol, and the formation of the metabolite, resorufin, was monitored by fluorescence (excitation wavelength = 535 nm, emission wavelength = 595 nm). For the CYP2B6, CYP2C9, CYP2C19, CYP2D6, and CYP3A4 incubations, the reactions were terminated by methanol. The samples were centrifuged, and the supernatants combined for the simultaneous analysis of 4-hydroxytolbutamide, 4-hydroxymephenytoin, dextrorphan, and 1-hydroxymidazolam by LC-MS/MS. Hydroxybupropion, 6α-hydroxypaclitaxel and 6ß-hydroxytestosterone were analyzed separately by LC-MS/MS. A decrease in the formation of the metabolites compared to vehicle control was used to calculate IC50 values. (PDF 323 kb)
# CYP2C19 = target: T2, CYP2C19 (Homo sapiens, UniProt P33261); test: biochemical; type: in vitro ADME; settings: Substrate = Mephenytoin, human liver microsomes
# T2 construct: from tissue; host or cells: human liver microsomes
# Procedure: as §1
# CYP2C9 = target: T3, CYP2C9 (Homo sapiens, UniProt P11712); test: biochemical; type: in vitro ADME; settings: Substrate = Tolbutamide, human liver microsomes
# T3 construct: from tissue; host or cells: human liver microsomes
# Procedure: as §1
# CYP2D6 = target: T4, CYP2D6 (Homo sapiens, UniProt P10635); test: biochemical; type: in vitro ADME; settings: Substrate = Dextromethorphan, human liver microsomes
# T4 construct: from tissue; host or cells: human liver microsomes
# Procedure: as §1
# CYP3A4 = target: T5, CYP3A4 (Homo sapiens, UniProt P08684); test: biochemical; type: in vitro ADME; settings: human liver microsomes
# T5 construct: from tissue; host or cells: human liver microsomes
# Procedure: as §1
# liver = test: Hepatotoxicity of chronic administration, liver hematoxylin-eosin staining; type: in vivo; settings: mouse, data not shown
# Procedure: As VCE-003.2 was previously shown to exert a neuroprotective action in preclinical HD models, and considering its pro-neurogenic profile, we evaluated the pathophysiological impact and potential therapeutic value of VCE-003.2 after oral administration. Pharmacokinetic analyses were performed in rats after oral administration of VCE-003.2 (50 mg/kg) dissolved in sesame oil. Plasma VCE-003.2 levels peaked at 8 h (Tmax) and then slowly declined to basal levels. […] We also investigated some critical ADME/Tox parameters. […] We also determined the potential hepatotoxicity of chronic VCE-003.2 administration by hematoxylin-eosin staining. […] We also determined the impact of VCE-003.2 administration on peripheral biomarkers by quantifying the levels of cytokines and other soluble mediators.
# neural progenitor = test system: neural progenitor; set-up: method as in PMID 27430371; settings: cited from earlier work
# adipogenic = settings: compared with full PPARγ-agonists; cited from earlier work
# T5 sequence (P08684 whole entry): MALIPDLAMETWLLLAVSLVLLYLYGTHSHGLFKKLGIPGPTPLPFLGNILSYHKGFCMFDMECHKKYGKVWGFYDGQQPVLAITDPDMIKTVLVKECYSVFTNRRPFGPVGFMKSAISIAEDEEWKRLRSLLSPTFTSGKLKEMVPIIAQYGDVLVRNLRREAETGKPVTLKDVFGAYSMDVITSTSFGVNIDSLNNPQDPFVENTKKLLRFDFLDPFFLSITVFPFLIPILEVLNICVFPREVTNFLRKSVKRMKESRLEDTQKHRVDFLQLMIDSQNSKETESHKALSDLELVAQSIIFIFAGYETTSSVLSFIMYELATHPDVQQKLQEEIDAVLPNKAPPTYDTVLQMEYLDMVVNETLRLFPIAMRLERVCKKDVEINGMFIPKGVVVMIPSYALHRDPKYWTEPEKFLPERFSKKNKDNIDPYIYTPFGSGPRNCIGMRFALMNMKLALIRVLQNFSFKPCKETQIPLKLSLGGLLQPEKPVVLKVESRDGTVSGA
# T1 sequence (P20813 whole entry): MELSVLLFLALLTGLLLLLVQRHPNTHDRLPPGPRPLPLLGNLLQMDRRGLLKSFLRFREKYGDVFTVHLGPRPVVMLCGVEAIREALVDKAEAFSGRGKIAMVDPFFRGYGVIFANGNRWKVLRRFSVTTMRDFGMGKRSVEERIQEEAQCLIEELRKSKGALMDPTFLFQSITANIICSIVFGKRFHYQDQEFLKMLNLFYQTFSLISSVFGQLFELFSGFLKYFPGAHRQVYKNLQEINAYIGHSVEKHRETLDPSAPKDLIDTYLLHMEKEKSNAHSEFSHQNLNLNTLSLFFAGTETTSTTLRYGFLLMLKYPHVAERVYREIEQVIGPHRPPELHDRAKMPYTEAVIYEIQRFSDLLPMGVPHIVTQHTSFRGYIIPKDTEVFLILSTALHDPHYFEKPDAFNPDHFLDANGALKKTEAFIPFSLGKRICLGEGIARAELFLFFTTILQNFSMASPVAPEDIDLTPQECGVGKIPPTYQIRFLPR
# T3 sequence (P11712 whole entry): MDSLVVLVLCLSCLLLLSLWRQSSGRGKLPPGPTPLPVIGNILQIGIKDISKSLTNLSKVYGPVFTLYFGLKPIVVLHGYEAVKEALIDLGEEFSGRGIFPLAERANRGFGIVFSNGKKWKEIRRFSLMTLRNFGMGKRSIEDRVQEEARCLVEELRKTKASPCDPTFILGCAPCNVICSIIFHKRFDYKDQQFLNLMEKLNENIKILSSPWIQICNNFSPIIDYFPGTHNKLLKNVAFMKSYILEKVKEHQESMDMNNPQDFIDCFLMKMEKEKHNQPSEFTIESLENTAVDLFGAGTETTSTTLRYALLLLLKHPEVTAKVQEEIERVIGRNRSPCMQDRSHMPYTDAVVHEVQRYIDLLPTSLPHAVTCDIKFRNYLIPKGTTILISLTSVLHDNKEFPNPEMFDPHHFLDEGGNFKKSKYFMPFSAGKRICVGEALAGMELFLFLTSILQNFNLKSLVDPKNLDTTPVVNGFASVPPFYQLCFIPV
# T4 sequence (P10635 whole entry): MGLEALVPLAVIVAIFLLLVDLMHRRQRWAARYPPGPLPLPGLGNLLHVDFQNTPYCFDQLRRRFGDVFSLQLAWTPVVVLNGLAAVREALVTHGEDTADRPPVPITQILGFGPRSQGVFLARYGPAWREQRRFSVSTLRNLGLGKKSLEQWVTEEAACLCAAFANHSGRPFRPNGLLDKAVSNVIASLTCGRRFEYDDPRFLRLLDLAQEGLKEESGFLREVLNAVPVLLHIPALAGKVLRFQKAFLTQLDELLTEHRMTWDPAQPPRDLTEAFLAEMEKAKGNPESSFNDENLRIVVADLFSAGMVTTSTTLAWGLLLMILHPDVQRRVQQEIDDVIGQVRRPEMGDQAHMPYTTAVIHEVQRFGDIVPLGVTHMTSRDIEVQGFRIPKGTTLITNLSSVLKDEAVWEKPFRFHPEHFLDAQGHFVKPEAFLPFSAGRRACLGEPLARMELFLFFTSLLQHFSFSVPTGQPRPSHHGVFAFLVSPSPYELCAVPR
# T2 sequence (P33261 whole entry): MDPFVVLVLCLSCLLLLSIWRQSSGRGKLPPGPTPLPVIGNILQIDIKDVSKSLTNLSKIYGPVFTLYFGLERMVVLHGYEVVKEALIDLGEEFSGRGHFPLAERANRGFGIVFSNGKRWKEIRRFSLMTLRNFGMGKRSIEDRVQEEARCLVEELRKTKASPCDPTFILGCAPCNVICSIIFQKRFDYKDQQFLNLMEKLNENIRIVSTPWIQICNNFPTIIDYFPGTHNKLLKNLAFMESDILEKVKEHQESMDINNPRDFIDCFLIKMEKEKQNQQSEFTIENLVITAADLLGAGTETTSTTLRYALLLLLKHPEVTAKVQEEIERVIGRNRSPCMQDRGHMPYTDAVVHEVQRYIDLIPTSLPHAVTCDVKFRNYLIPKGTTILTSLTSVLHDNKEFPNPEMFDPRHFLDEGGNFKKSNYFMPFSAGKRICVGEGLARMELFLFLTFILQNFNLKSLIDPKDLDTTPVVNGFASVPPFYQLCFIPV
smiles,measurement,setting,value
"CCCCCC1=C(NCC)C(=O)C(CC=C(C)CCC=C(C)C)=C(O)C1=O [VCE-003.2, 2-(3,7-dimethyl-octa-2,6-dienyl)-6-ethylamino-3-hydroxy-5-pentyl-(1,4) benzoquinone]",intrinsic clearance in vitro (in words),[1]; human liver microsomes,rapid intrinsic clearance
same,half-life,"[1]; human, microsomes, pH 7.4",10.6 min
same,microsomal CLint,"[1]; human, microsomes, pH 7.4",131 µL/min/mg
same,IC50,CYP2B6,> 25 µM
same,IC50,CYP2C19,> 25 µM
same,IC50,CYP2C9,15.7 ± 1.96 µM
same,IC50,CYP2D6,> 25 µM
same,IC50,CYP3A4; Substrate = Midazolam,> 25 µM
same,IC50,CYP3A4; Substrate = Testosterone,> 25 µM
same,"hepatotoxicity, liver histology",liver,"did not show any evidence of fibrosis, steatosis, vacuolization, ballooning or inflammation"
same,neural progenitor survival,neural progenitor,increases neural progenitor survival
same,adipogenic effect,adipogenic,less adipogenic
